Laboratory results taken from US12583817B2, “Ionizable lipids and compositions and uses thereof” (Massachusetts Institute of Technology, priority 2021, dated 2026).
Entries after “also recorded” stand apart in the source; their conditions may differ.

Columns and labels:
[1] = tested on: mouse lung; assay: Nebulized FFL mRNA delivery to mice, lung bioluminescence (IVIS); type: in vivo, C57BL/6 mice; settings: for Nebulized lung delivery compared between lipids/NPs: 1 mg dose via nose cone, 6 hr, T1-5 formulated with bPEG20K and NaAc; for In vivo performance via nebulization vs C12-200: 1 mg mRNA dose (FIG. 6A); for Nebulized delivery in NaAc buffer with bPEG20K vs PBS with no excipient: T1-5 LNPs
Description: In vivo nebulized delivery. In vivo nebulized delivery of mRNA to C57BL/6 mice (Jackson Laboratory) was performed either in a whole-body exposure chamber or a nose-only exposure chamber (CH Technologies) where specified. LNPs at 0.3 mg/mL of mRNA were loaded into the nebulizer at required volumes with 2% w/v excipients where specified. For the whole-body exposure chamber, the nebulizer was connected to the chamber via a tee and an oxygen flow rate of 15 SCFH was used to direct aerosol into the chamber. For the nose-only exposure chamber, mice were immobilized in restrainers and the restrainers connected to the chamber. A flow rate of 2 SLPM of oxygen was used and pressure within the chamber was maintained at −0.1 din. H2O.
In vivo bioluminescence, 6 h after nebulization, unless otherwise noted, mice were injected intraperitoneally with 0.2 ml XenoLight D-luciferin (10 mg/mL in DPBS, PerkinElmer). For whole-body imaging, mice were anesthetized in a ventilated anesthesia chamber with 2.5% isofluorane in oxygen and imaged 10 min after luciferin injection. Otherwise, mice were sacrificed 10 min after luciferin injection and organs were collected for imaging. Luminescence was measured with an in vivo imaging system (IVIS, PerkinElmer) and quantified using the Living Image software (PerkinElmer).

[2] = tested on: nose; assay: Nebulized FFL mRNA delivery to mice, luminescence in nose; type: in vivo
[3] = Toxicity study after repeat nebulized dosing (weight, serum ALT/AST); type: in vivo, mice; settings: repeated nebulized delivery
Description: (FIG. 6A). […] To determine whether the protein expression in the lung could be controlled by nebulized dose, a dose-response study of the three LNPs was performed, whereby mice were nebulized with 0.25, 0.5, or 1 mg of mRNA. For all three LNPs, there was an increase in lung luminescence corresponding to increasing dose (FIG. 14A). […] For mRNA protein-replacement therapies to treat pulmonary diseases like cystic fibrosis, repeat dosing of the therapeutic will be required unless genome editing is possible. Therefore, the ability to repeat-dose nebulized LNPs was characterized by administration of 1 mg of FFL mRNA every 72 h, with measurement of lung luminescence 6 h after each nebulization. For all LNPs, no loss in lung luminescence was observed over the course of the three administrations (FIG. 6B). Additionally, repeated delivery of the nebulized LNPs was well tolerated as evidenced by the lack of weight loss (FIG. 27) and normal liver enzyme levels (FIG. 14B) in mice.
Toxicity study, 48 h after the third nebulization of FFL mRNA in the repeat dosing study, mice were bled and sera was isolated using microcentrifugation in BD SST microtainers. Serum was analyzed for ALT and AST levels (Custom lipid panel 62149, IDEXX Bioanalytics).

[4] = tested on: ALI cultures derived from primary human bronchial epithelial cells; settings: for mRNA delivery in small and large airway ALI cultures, lipids and tail/headgroup variants: handmixed LNPs, not nebulized; for mRNA delivery to small airway ALI cultures: screen of 12 top-performing A549 LNPs
Description: Air-liquid interface (ALI) cultures derived from primary human bronchial epithelial cells were selected. ALI cultures are grown on porous Transwell inserts such that, upon reaching confluence, media can be removed from the top (apical) side of the insert and the cells can be fed from the bottom, basolateral, side (FIG. 12A). This enables recapitulation of the conditions of the native bronchial epithelium, where the apical side of the cells is exposed to the air while the basolateral side is bathed in nutrients.
Primary large airway cells (University of North Carolina at Chapel Hill MLI Tissue Procurement and Cell Culture Core) and primary small airway cells (ATCC) were expanded using PneumaCult-ExPlus (StemCell) according to the instructions for the media and plated for ALI cultures at P3 and P4 respectively.
ALI cultures were plated either onto 0.4 μm pore, 6.5 mm diameter PET Transwell inserts for 24-well plates (Corning) or 0.4 μm pore polycarbonate inserts for 96-well plates (Corning). The 24-well plates were used for histology, the two-week transfection timecourse, and TEER measurements; 96-well plates were used for all other experiments, 33,000 cells/well were seeded in the 24 well inserts and 15,000 cells/well were seeded in the 96-well plate inserts.
Per manufacturer instructions, cultures were grown to confluence with both apical and basolateral (ExPlus) media for 2-4 days before airlift. […] Upon airlift, apical media was removed and basolateral media was changed to PneumaCult-ALI (for large airway cells) or ALI-S (for small airway cells) media (StemCell). […] Media was changed 3 times/week and cells were not transfected until at least 20 days of ALI culture.
In vitro transfection experiments. […] The next day. […] For ALI cultures.

[5] = LNP size by DLS before and after nebulization; type: physicochemical; settings: nebulized in the presence of bPEG20K and NaAc buffer
Description: Nebulization of nanoparticles. For characterizing effects of nebulization on LNP size, encapsulation efficiency, and transfection efficiency, 100 uL of LNPs at 150 ng/uL were loaded into an Aeroneb vibrating mesh nebulizer (Aerogen) and nebulized into 1.5 mL microcentrifuge tubes. Where specified, 2% w/v of excipients were added to the LNP formulation following dialysis and immediately prior to nebulization.

[6] = tested on: A549 cells; assay: In vitro FFL mRNA transfection of A549 cells (Bright-Glo); settings: microfluidically mixed, nebulized with bPEG20K and NaAc
[7] = tested on: lung epithelium; assay: Nebulized Cre mRNA delivery to Ai14 mice, histology count of tdTomato+ airway cells
[8] = nebulized, 1 mg dose, nose cone
[9] = Cre mRNA nebulized over 3 doses
[10] = all cells, Cre mRNA nebulized over 3 doses

SMILES	Nebulized lung delivery compared between lipids/NPs [1]	In vivo performance via nebulization vs C12-200 [1]	Nebulized delivery in NaAc buffer with bPEG20K vs PBS with no excipient [1]	Protein expression / mRNA delivery in the nose [2]	Tolerability of nebulized LNPs [3]	mRNA delivery in small and large airway ALI cultures, lipids and tail/headgroup variants [4]	mRNA delivery to small airway ALI cultures [4]	Lung luminescence ([1]; 6 hr after 1 mg dose via nose cone, lipids T1-5 formulated with bPEG20K and NaAc)	Fold improvement of IR-117-17 lung mRNA delivery over NLD1 [1, 8]	Improvement of IR-117-17 lung mRNA delivery over polymeric PBAE nanoparticle [1, 8]	Average diameter after nebulization [5]	FFL delivery to A549 cells, post-nebulized LNPs [6]	Small airways with at least 1 transfected cell ([7]; 140/151 airways)	Club cells transfected, large airway [7, 9]	Club cells transfected, small airway [7, 9]	Transfection of large airway cells (average) [7, 10]	Transfection of small airway cells (average) [7, 10]	Transfection of individual stretches of airway ([7]; some stretches)
CCCCCCCC/C=C\CCCCCCCC(=O)OCCCCCC(O)C(CCCCOC(=O)CCCCCCC/C=C\CCCCCCCC)CN(C)CCCn1cccn1 (stereo not drawn) [IR-19-Py, 5-(((3-(1H-pyrazol-1-yl)propyl)(methyl)amino)methyl)-6-hydroxyundecane-1,11-diyl dioleate]	statistically comparable delivery to C12-200	performed comparably to C12-200	improves nebulized delivery of both LNPs compared to PBS	significantly outperform state-of-the-art mRNA delivery formulations; also recorded: particularly high and extended protein expression was observed in the nose	no apparent toxicity	outperformed other screened lipids in ALI cultures	excellent performance											
CCCCC/C=C\C/C=C\CCCCCCCC(=O)OCCCCCC(O)C(CCCCOC(=O)CCCCCCC/C=C\C/C=C\CCCCC)CNCCCN(CCCC)CCCC (stereo not drawn) [IR-117-17, 5-(((3-(dibutylamino)propyl)amino)methyl)-6-hydroxyundecane-1,11-diyl (9Z,9′Z,12Z,12′Z)-bis(octadeca-9,12-dienoate)]	significantly outperform state-of-the-art mRNA delivery formulations; also recorded: significantly outperformed C12-200	outperformed C12-200	improves nebulized delivery of both LNPs compared to PBS		no apparent toxicity	outperformed other screened lipids in ALI cultures	excellent performance	1.1×10^6 p s^−1 cm^−2 sr^−1	300 fold	twofold; also recorded: two-fold	116 nm	effective	93%	8.4%	7.6%	10.3%	8.8%	near-complete transfection
